Values joined by “and” are separate entries in the source; they are usually repeats but may differ in a detail not shown here. Equal entries are not always repeated.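 In this assay, cells in 96-well plates receive the compound at five concentrations for 48 hours. Endpoints are linearly interpolated between the surrounding concentrations. GI50 = concentration required for 50% inhibition of growth. TGI: concentration producing complete growth inhibition.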

Usually TGI stands for the concentration at which net growth stops. Broadly, the GI50 is the concentration that inhibits growth by half.

Test systems include A549 NSCLC; BT-549 breast; HL-60(TB) leukemia; HOP-92 NSCLC; LOX IMVI melanoma; MALME-3M melanoma; SF-539 CNS; SK-MEL-2 melanoma; SNB-19 CNS; TK-10 renal.
Holding throughout (experiment): DTP human tumour cell line panel, 48 h

Turning to `Cc1ccc(C(=O)N2CCN(C(=O)c3ccc(C)cc3)c3ccccc32)cc1`, the TGI in the assay with A549 NSCLC was greater than 100 µM; in the assay on BT-549 breast it was greater than 100 µM; with HL-60(TB) leukemia, 4.21 µM; in the assay on HOP-92 NSCLC it was greater than 61.2 µM; in the assay on LOX IMVI melanoma, greater than 100 µM; with MALME-3M melanoma it was greater than 100 µM. Besides, the TGI is 11.9 µM with SF-539 CNS, greater than 39.6 µM in the assay with SK-MEL-2 melanoma, greater than 100 µM in the assay with SNB-19 CNS and greater than 100 µM with TK-10 renal.
As for `O=C(NCCN1CCC(O)CC1)c1cc2c(o1)C(=O)c1ccccc1C2=O`, the 50% growth inhibitory concentration (GI50) in the assay on A549 NSCLC was 0.213 µM; in the assay with BT-549 breast it was 0.17 µM; in the assay on HL-60(TB) leukemia, 0.282 µM; with HOP-92 NSCLC, 1.48 µM; in the assay on LOX IMVI melanoma, 0.145 µM; in the assay with MALME-3M melanoma, 0.0272 µM. In addition, the GI50 in the assay on SF-539 CNS is 0.211 µM; with SK-MEL-2 melanoma, 0.518 µM; in the assay on SNB-19 CNS it was 0.27 µM; with TK-10 renal it was 2 µM. Further, the total growth inhibition concentration (TGI) with A549 NSCLC came to 0.514 µM; in the assay on BT-549 breast, 0.326 µM; in the assay on HL-60(TB) leukemia, 1.02 µM; in the assay with HOP-92 NSCLC it was 3.19 µM; with LOX IMVI melanoma, 0.337 µM; with MALME-3M melanoma, 0.0885 µM. For the same compound, the TGI in the assay on SF-539 CNS turned out to be 0.471 µM; in the assay with SK-MEL-2 melanoma it was 2.21 µM; in the assay with SNB-19 CNS it was 0.956 µM; in the assay with TK-10 renal, 3.59 µM.
For `CCOC(=O)NC1=C(N2CC2)C(=O)C(NC(=O)OCC)=C(N2CC2)C1=O`, the GI50 in the assay on A549 NSCLC was 6.46 µM and 1.64 µM and 3.09 µM; in the assay with HL-60(TB) leukemia, 1.85 µM and 0.403 µM; in the assay on HOP-92 NSCLC it was 6.18 µM; with MALME-3M melanoma, 5.79 µM; with SF-539 CNS it was 1.57 µM; in the assay with SK-MEL-2 melanoma, 5.09 µM and 7.71 µM. In addition, the GI50 with SNB-19 CNS was 6.66 µM; in the assay with TK-10 renal, greater than 25 µM. In addition, the concentration for total growth inhibition (TGI) was 25 µM and 43 µM and 40.2 µM in the assay with A549 NSCLC; 25 µM with BT-549 breast; 11 µM and 4 µM and 1.49 µM in the assay with HL-60(TB) leukemia; 16.1 µM and 11.2 µM and 10.1 µM with HOP-92 NSCLC; 17.1 µM and 11.9 µM in the assay on LOX IMVI melanoma; 18 µM and 18.3 µM and 15.6 µM in the assay on MALME-3M melanoma. Also, the TGI in the assay on SF-539 CNS is 9.51 µM and 9.15 µM and 27.5 µM; in the assay with SK-MEL-2 melanoma, 15.2 µM and 14.4 µM and 16.1 µM; with SNB-19 CNS, 25 µM and 30.2 µM; in the assay with TK-10 renal, > 25 µM and 65.1 µM.
As for `COc1c2c(c(CC=C(C)C)c3oc(=O)c(-c4ccc(O)cc4)c(O)c13)OC(C)(C)C=C2`, the TGI is greater than 100 µM in the assay on A549 NSCLC; greater than 100 µM in the assay with BT-549 breast; 51 µM in the assay with HL-60(TB) leukemia; 58.7 µM in the assay on HOP-92 NSCLC; greater than 100 µM in the assay with LOX IMVI melanoma; 70.2 µM in the assay with MALME-3M melanoma. The concentration for total growth inhibition (TGI) in the assay with SF-539 CNS was 32.8 µM; with SK-MEL-2 melanoma it was 52.8 µM; in the assay on SNB-19 CNS it was greater than 100 µM; in the assay on TK-10 renal, greater than 100 µM.
`C[n+]1c2ccccc2c(Nc2ccc(NS(=O)(=O)CCCCN=C(N)N)cc2)c2ccc(N)cc21`: the concentration for 50% growth inhibition (GI50) in the assay with A549 NSCLC is less than 0.0128 µM; with BT-549 breast, 35.2 µM; in the assay with HL-60(TB) leukemia, 1.64 µM; in the assay with HOP-92 NSCLC it was 1.92 µM; in the assay with LOX IMVI melanoma, 1.82 µM; in the assay on MALME-3M melanoma it was 4.06 µM. In addition, the GI50 with SF-539 CNS is 3.37 µM; in the assay with SK-MEL-2 melanoma, 18.5 µM; in the assay on SNB-19 CNS it was 0.444 µM; in the assay on TK-10 renal it was 6.47 µM. The total growth inhibition concentration (TGI) with A549 NSCLC is 16 µM; in the assay on BT-549 breast, greater than 100 µM; with HL-60(TB) leukemia, greater than 56.1 µM; with HOP-92 NSCLC, 52.9 µM; in the assay with LOX IMVI melanoma it was greater than 100 µM; in the assay with MALME-3M melanoma it was 35.2 µM. Moreover, the TGI in the assay with SF-539 CNS is greater than 100 µM; in the assay on SK-MEL-2 melanoma, 50.6 µM; in the assay with SNB-19 CNS, greater than 100 µM; in the assay on TK-10 renal, 58.3 µM.
Consider `Fc1cccc(CSc2ncnc3c2ncn3C2CCCS2)c1` (stereo not drawn), for which the TGI in the assay with A549 NSCLC was greater than 100 µM; in the assay with BT-549 breast, 79.5 µM; in the assay with HL-60(TB) leukemia, 32.1 µM; in the assay on HOP-92 NSCLC, 67.4 µM; in the assay on LOX IMVI melanoma it was 34.9 µM; in the assay on MALME-3M melanoma, 49.3 µM. For the same compound, the TGI with SF-539 CNS was 25.8 µM; in the assay with SK-MEL-2 melanoma, 40.3 µM; in the assay with SNB-19 CNS, greater than 100 µM; with TK-10 renal, greater than 100 µM.
On to `CC(=O)OCc1ccc(O)c(C=O)c1`, for which the TGI in the assay with A549 NSCLC, in the assay on BT-549 breast, in the assay on HL-60(TB) leukemia, with HOP-92 NSCLC, in the assay with LOX IMVI melanoma and in the assay with MALME-3M melanoma was greater than 100 µM throughout. In addition, the TGI in the assay on SF-539 CNS, with SK-MEL-2 melanoma, in the assay with SNB-19 CNS and in the assay with TK-10 renal was greater than 100 µM in each case.
For `COc1ccc2nc(NCN3C(=O)c4ccccc4C3=O)sc2c1`, the total growth inhibition concentration (TGI) with A549 NSCLC, with BT-549 breast, in the assay with HL-60(TB) leukemia, in the assay on HOP-92 NSCLC, in the assay on LOX IMVI melanoma and with MALME-3M melanoma was greater than 100 µM in each case. The TGI with SF-539 CNS, in the assay with SK-MEL-2 melanoma, with SNB-19 CNS and in the assay with TK-10 renal was greater than 100 µM each time.
Turning to `Oc1ccc2ccccc2c1C1NN=C(c2ccccc2)S1` (stereo not drawn), the GI50 is 0.587 µM in the assay on A549 NSCLC; 0.858 µM in the assay on BT-549 breast; 0.353 µM in the assay with HL-60(TB) leukemia; 0.244 µM with HOP-92 NSCLC; 0.327 µM in the assay on LOX IMVI melanoma; 1.56 µM in the assay with MALME-3M melanoma. The concentration for 50% growth inhibition (GI50) was 0.361 µM with SF-539 CNS, 0.41 µM with SK-MEL-2 melanoma, 0.683 µM in the assay on SNB-19 CNS and 0.559 µM in the assay with TK-10 renal. In addition, the total growth inhibition concentration (TGI) with A549 NSCLC turned out to be 84.1 µM; in the assay on BT-549 breast it was 28.9 µM; in the assay on HL-60(TB) leukemia, 4.13 µM; in the assay with HOP-92 NSCLC it was 12.2 µM; in the assay with LOX IMVI melanoma it was 13 µM; with MALME-3M melanoma, 21 µM. The total growth inhibition concentration (TGI) in the assay with SF-539 CNS was 16 µM; in the assay on SK-MEL-2 melanoma it was 14.9 µM; in the assay on SNB-19 CNS, greater than 100 µM; in the assay on TK-10 renal, 38.2 µM.
Consider `COc1ccc2c(c1)c1nc3cc(C)c(C)cc3nc1n2CCN(C)C`, for which the GI50 in the assay on A549 NSCLC is 0.495 µM; in the assay on BT-549 breast it was 1.7 µM; with HL-60(TB) leukemia, 0.992 µM; in the assay on HOP-92 NSCLC, 0.308 µM; with LOX IMVI melanoma, 0.375 µM; with MALME-3M melanoma, 1.11 µM. For the same compound, the GI50 in the assay on SF-539 CNS was 0.907 µM; with SK-MEL-2 melanoma it was 1.46 µM; in the assay on SNB-19 CNS, 0.678 µM; with TK-10 renal, 1.84 µM. Moreover, the concentration for total growth inhibition (TGI) in the assay with A549 NSCLC came to 2.19 µM; with BT-549 breast, 3.49 µM; in the assay on HL-60(TB) leukemia it was 3.36 µM; with HOP-92 NSCLC, 2.12 µM; in the assay with LOX IMVI melanoma, 1.6 µM; in the assay on MALME-3M melanoma, 2.53 µM. The concentration for total growth inhibition (TGI) in the assay with SF-539 CNS was 2.35 µM; with SK-MEL-2 melanoma it was 3.29 µM; in the assay with SNB-19 CNS, 2.32 µM; in the assay with TK-10 renal it was 3.58 µM.

These data come from PubChem BioAssay (NCI).
